# Test results as given in US20260091082A1, “CYCLIC PEPTIDE DERIVATIVE COMPOSITION FOR TREATING OR PREVENTING EYE DISEASE” (DKS Co. Ltd., priority 2022, published 2026).
# Where “and” joins values, the source holds several entries; their conditions need not be identical. Identical values can stand only once. Entries after “also recorded” stand apart in the source; their conditions may differ.
# How the values were obtained:
# [1] = system: anterior chamber aqueous humor pressure load rat model; experiment: Retinal thickness (IPL, INL, ONL) in retinal damage model induced by anterior chamber aqueous humor pressure load; assay type: in vivo, Rat; Slc: SD; conditions: for Inner plexiform layer (IPL) thickness compared with the control group, in words: 300 to 900 μm from the optic disk
# Protocol: • Name: Compound 9 • Source: Synthesized in the above Examples • Used amount: 0.4 mL (50 mg/mL solution) • Storage conditions: Freezing, light shielding
# Method for preparing test substance (1 mg/mL): A high concentration solution prepared at 50 mg/mL was diluted 50 times with a medium to prepare a 1 mg/mL administration solution.
# • Name: MK-801 • Distributor: SIGMA-ALDRICH • Use amount: 0.0501 g • Storage condition: refrigerated (2° C. to 8° C.)
# Method for preparing positive control substance (10 mg/mL): 0.0501 g was weighed out and made up to a total volume of 5 mL with a control substance (physiological saline).
# • Species and strains: Rat; Slc: SD • Number of animals on arrival and sex: 50 males • Age in weeks at arrival: 6 weeks old • Body weight range at arrival: 147.2 to 170.0 g • Source: Japan SLC, Inc.
# Grouping was performed two days before the first creation of the retinal damage model induced by an anterior chamber aqueous humor pressure load. Using the daily body weight as an index, stratified random allocation was performed using SAS (Ver. 9.3, SAS Institute Japan Ltd.) and EXSUS (Ver. 8.0, CAC Croit Corporation) so that an average value of the body weights of each group was approximately uniform.
# • Administration route: Eyedrop administration, intravenous administration • Administration method (eyedrop): Eyedrop administration was performed on a treated eye (right eye) of a rat using a micropipette 4 times a day (at intervals of 1.5 hours or more). • Administration method (intravenous): The amount of administration solution, calculated from the body weight on the day of administration, was administered from the tail vein using a syringe and an injection needle about 30 minutes before ischemic load. • Time of administration: Administration was performed according to the following schedule.
# 1. 10 mg/kg xylazine hydrochloride was intramuscularly administered on the model creation day (day 0). A rat was placed in an anesthesia box and subjected to general anesthesia with isoflurane (5%, oxygen:nitrous oxide=1:3). When anesthesia was effective, the rat was taken out of the anesthesia box, an inhalation anesthetic mask was worn, and anesthesia was maintained with isoflurane (1% to 5%, oxygen nitrous oxide=1:3).
# 2. The body temperature was maintained at 37° C. with a warming mat, and a mydrin P ophthalmic solution was instilled in the right eye (treated eye) of the rat to dilate the pupil, then the cravit ophthalmic solution 1.5% (Santen Pharmaceutical Co., Ltd.) was instilled.
# 3. A bottle of an IV bag containing physiological saline was previously suspended so that a water surface was 155 cm (100 mmHg or more) higher than the eye of the rat. The IV bag was connected to a pediatric infusion set (Terumo Corporation), a 27 G injection needle thereof was inserted into and fixed to the anterior chamber while slightly dripping the liquid from a needle tip. The model was created in the light phase (6:00 to 18:00) in consideration of the diurnal variation of the intraocular pressure.
# 4. After the needle was inserted into the anterior chamber, pressure (100 mmHg or more) was loaded and maintained in the anterior chamber by associating the reflux system.
# 5. After an ischemic load for 45 minutes, the injection needle and the like were removed, the inhalation anesthetic mask was removed, and the rat was sufficiently woken up under a warming mat, and then returned to the cage.
# 6. For 2 days after surgery, 10 mg/kg xylazine hydrochloride was intramuscularly administered as an analgesic for the purpose of alleviating the pain after the treatment.
# 1. Fourteen days after model creation, general anesthesia was performed with isoflurane (5%, oxygen:nitrous oxide=1:3), euthanasia was then performed by exsanguination, a suture was placed as a marker at the 12 o'clock position of the ocular conjunctiva, and eyeball enucleation was performed.
# 2. […]
# [2] = Body weight measurement during the CNV rat test; assay type: in vivo; conditions: for Body Weight (Average): 14 days 4 times a day
# Protocol: The appearance, behavior, and state of excrement or the like were observed every day.
# The body weight was measured on the animal arrival date, the preliminary housing end date (grouping date), the eyedrop administration start date, the laser irradiation date (Day 0), and the eyeball enucleation date (Day 14).
# [3] = compound 9, 1 mg/mL eye drop, right eye, individual animals 301-310
# [4] = test groups 2 and 3 (test substance groups)
smiles,measurement,setting,value
CC[C@@]1(C)Oc2cc(ccc2O)C[C@H](NC)C(=O)N[C@@H](C(C)C)C(=O)N[C@@H]1C(=O)N[C@@H](CC(=O)O)C(=O)O [Compound 9],"Thickness of ONL, distance from optic disk 300 μm (single measurement)",[1]; [3],29.809 μm and 32.509 μm and 28.214 μm and 43.038 μm and 41.873 μm and 42.494 μm and 36.113 μm and 33.931 μm and 32.522 μm and 36.780 μm and 37.800 μm and 37.520 μm and 42.742 μm and 39.019 μm and 43.913 μm and 40.612 μm and 41.912 μm and 42.252 μm and 45.276 μm and 46.187 μm (2×) and 47.148 μm and 61.386 μm and 56.945 μm and 55.989 μm and 51.520 μm and 53.774 μm and 52.512 μm and 40.451 μm and 43.373 μm
same,"Thickness of ONL, distance from optic disk 600 μm (single measurement)",[1]; [3],30.220 μm and 32.139 μm and 47.765 μm and 48.521 μm (2×) and 35.360 μm and 35.504 μm and 40.331 μm and 37.009 μm and 49.431 μm and 49.964 μm and 42.863 μm and 40.883 μm and 44.362 μm and 46.081 μm and 44.179 μm and 42.769 μm and 44.033 μm and 41.550 μm and 42.129 μm and 31.379 μm and 50.234 μm and 36.932 μm and 39.277 μm and 47.914 μm and 40.524 μm and 43.548 μm and 48.975 μm and 41.515 μm and 45.970 μm
same,"Thickness of ONL, distance from optic disk 900 μm (single measurement)",[1]; [3],26.908 μm and 28.742 μm and 28.226 μm and 52.295 μm and 46.680 μm and 52.512 μm and 29.438 μm and 34.522 μm and 34.086 μm and 36.727 μm and 35.966 μm and 41.192 μm and 41.663 μm and 39.411 μm and 42.337 μm and 37.593 μm and 40.812 μm and 38.516 μm and 42.098 μm and 44.443 μm and 46.165 μm and 42.932 μm and 37.619 μm and 42.252 μm and 39.713 μm and 39.071 μm and 42.321 μm and 37.664 μm and 38.550 μm and 42.169 μm
same,"Inner plexiform layer (IPL) thickness compared with the control group, in words",[1]; test group 2 (preventive: eye drop on the 2 days before model creation),statistically significant differences were observed at all measurement sites; also recorded: statistically significant effect of suppressing retinal damage by aqueous humor pressure load was observed at all measurement sites
same,"Inner plexiform layer (IPL) thickness compared with the control group, in words",[1]; test group 3 (therapeutic: eye drop for 13 days from the day after model creation),statistically significant differences were observed at all measurement sites; also recorded: statistically significant effect of suppressing retinal damage by aqueous humor pressure load was observed at all measurement sites; also recorded: almost equivalent to that of the MK-801
same,"Inner nuclear layer (INL) thickness compared with the control group, in words",[1]; [4],no obvious change was observed
same,"Outer nuclear layer (ONL) thickness compared with the control group, in words",[1]; [4],no obvious change was observed
same,Body Weight (Average),"[2]; Group 3, eye drop 5 μg/5 μL/eye, Day 0 (Laser injection)",152.66 g
same,Body Weight (Average),"[2]; Group 3, eye drop 5 μg/5 μL/eye, Day 14 (Enucleation)",184.36 g
same,Body Weight (Average),"[2]; Group 3, eye drop 5 μg/5 μL/eye, Day −3 or Day −2 (Grouping)",141.80 g
same,Weight (g) (Individual),"[2]; Group 3 individual animals, eye drop 5 μg/5 μL/eye, Enucleation (Day 14)",187.51 g and 200.36 g and 188.53 g and 178.12 g and 191.73 g and 185.42 g and 178.06 g and 179.74 g and 187.00 g and 167.09 g
same,Weight (g) (Individual),"[2]; Group 3 individual animals, eye drop 5 μg/5 μL/eye, Grouping (Day −3 or −2)",142.67 g and 150.51 g and 144.41 g and 133.08 g and 140.65 g and 139.40 g and 138.22 g and 145.52 g and 148.31 g and 135.25 g
same,Weight (g) (Individual),"[2]; Group 3 individual animals, eye drop 5 μg/5 μL/eye, Laser injection (Day 0)",156.06 g and 160.40 g and 156.65 g and 141.07 g and 149.62 g and 153.89 g and 146.49 g and 158.03 g and 159.18 g and 145.16 g
same,Body Weight (Average),"[2]; Group 4, eye drop 50 μg/5 μL/eye, Day 0 (Laser injection)",152.84 g
same,Body Weight (Average),"[2]; Group 4, eye drop 50 μg/5 μL/eye, Day 14 (Enucleation)",186.10 g
same,Body Weight (Average),"[2]; Group 4, eye drop 50 μg/5 μL/eye, Day −3 or Day −2 (Grouping)",141.65 g
same,Weight (g) (Individual),"[2]; Group 4 individual animals, eye drop 50 μg/5 μL/eye, Enucleation (Day 14)",171.86 g and 175.04 g and 182.32 g and 197.31 g and 192.55 g and 179.90 g and 198.77 g and 183.99 g and 193.77 g and 185.47 g
same,Weight (g) (Individual),"[2]; Group 4 individual animals, eye drop 50 μg/5 μL/eye, Grouping (Day −3 or −2)",133.40 g and 133.47 g and 138.61 g and 149.89 g and 142.02 g and 140.70 g and 144.50 g and 145.24 g and 149.29 g and 139.35 g
same,Weight (g) (Individual),"[2]; Group 4 individual animals, eye drop 50 μg/5 μL/eye, Laser injection (Day 0)",140.92 g and 141.64 g and 146.31 g and 156.67 g and 152.34 g and 152.92 g and 159.45 g and 160.10 g and 163.58 g and 154.47 g
